Results reported in patent US20230357349A1, “GLUCAGON DELIVERY VIA ENZYMATIC ACTUATION” (University of Notre Dame du Lac, priority 2022, published 2023).
Peptide text beside a SMILES is read from it. * marks the point of attachment. Palmitoyl = CCCCCCCCCCCCCCCC(=O)*; Decanoyl = CCCCCCCCCC(=O)*

Tests used:
[1] = pH recorded by microelectrode submerged in PA/GOx hydrogel samples; type: physicochemical; settings: 24 h, began at pH 7.4
[2] = pH-dependent release of encapsulated 3 kDa FITC-dextran to screen PA sequences; type: physicochemical; settings: 3 kDa FITC-dextran release; pH 7 minus pH 5 at 5 hr
Excerpt: GOx conversion of physiological levels of glucose to yield gluconic acid can lead to a microenvironmental pH in the range of ˜4-5.6. Accordingly, a molecular design was envisioned bearing the typical saturated alkyl chain and β-sheet-forming sequence coupled to glutamic acid as the hydrophilic domain; the pKa of its carboxylate R-group (˜4.5) can shift upward in the range of 4.5-6 due to aggregation effects from PA self-assembly. […] Different PA sequences were synthesized to vary the alkyl tail length (C10 and C16) and valine (V)-alanine (A) β-sheet sequence (V2A2, VA3, A2) with a conserved hydrophilic head group (E2). The intention of screening this small set of molecules was to probe pH-responsive release to determine the optimal balance of attractive and repulsive forces required for the envisioned application of assembly at normal glucose (i.e., low pH actuated by GOx) but disassembly and glucagon release in low glucose conditions (i.e., neutral-buffered physiological pH). […] The selected sequence has a shorter C10 alkyl segment than commonly used in most reported PA materials. The V2A2 sequence is thought to be effective for β-sheet hydrogen bonding, while still being shorter than most commonly explored sequences. […] Thus, a reduction in cohesive forces from a shorter alkyl segment and a 4-residue β-sheet forming segment was thought to enable more rapid responsiveness dependent on the charge state of the glutamic acid residues.
Hydrogels were prepared in all cases in a pH 5 buffer at 1% w/v to ensure initial gelation. […] It is noted that catalase was added to these formulations in order to catalyze the conversion of the toxic GOx byproduct, H2O2, into H2O and O2 in advance of in vivo application, as is commonly done to reduce toxicity for other GOx-based glucose-responsive materials.

[3] = Oscillatory rheology of 1% w/v PA samples in buffers of various pH; type: physicochemical; settings: for storage modulus G′: 1% w/v, 1% strain, 10 rad/s
Description: The C10-V2A2E2 peptide (SEQ ID NO: 4) amphiphile was first dissolved in DI water at a concentration of 2% (w/v). The solution was adjusted to pH 7.4 using 0.1 M HCl, and then mixed with an equal volume of citrate-phosphate buffer (150 mM buffer+150 mM NaCl) at different pH (4, 5, 6, 7, 8) to form a gel at a concentration of 1% (w/v) in a final buffer concentration of 150 mM.
(§1) Dynamic oscillatory rheology was performed on a TA Instruments Discovery HR-2 rheometer fitted with a Peltier stage using a parallel plate geometry with diameter of 25 mm to test the mechanical properties of all peptide hydrogels. Samples were prepared at a concentration of 1% (w/v) in buffers of different pH or glucose concentration, as described above, and measured 24 h after gel preparation. An amplitude sweep was first performed to determine the linear viscoelastic range for each hydrogel condition, and then a frequency sweep was performed at constant strain. Subsequently, a time-sweep (1% strain, 10 rad/s angular frequency) was performed for all hydrogels to measure and compare the storage modulus (G′).
Vial inversion affords a crude means to inspect bulk differences in apparent hydrogelation. By contrast, rheological testing enables quantitative insights into the mechanical and dynamic properties of these materials. Oscillatory rheology was thus performed to quantify the observed pH-dependent differences in hydrogelation. Samples were first assessed with a strain sweep to determine the linear viscoelastic range, and then gel-forming samples were subjected to a frequency sweep to verify the range of oscillatory frequency rates wherein the storage modulus (G′) exceeded the viscous/loss modulus (G″).
The G′ values for samples at each pH were compared at a constant strain of 1% and frequency of 10 rad/s. When comparing G′ values across the full range of pH explored (n=2 gels/sample), pH-dependent mechanical properties were clearly evident (FIG. 4E, FIG. 7). […] Samples prepared at pH 8 had G′ measurements at the lower limit of instrument sensitivity.

[4] = Oscillatory rheology of 1% w/v PA with GOx at various glucose concentrations; type: physicochemical; settings: pH 7.4 start, 24 h
Description: The C10-V2A2E2 peptide amphiphile was first dissolved in DI water at a concentration of 2% (w/v). The solution was adjusted to pH 7.4 using 0.1 M HCl, and then mixed with an equal volume of 300 mM NaCl solution containing 440 U/mL GOx and different glucose concentration (0, 100, 200, 300, 400 mg/dL) to achieve final glucose concentrations of 0, 50, 100, 150, and 200 mg/dL and final peptide concentration of 1% (w/v).
as §1
After pH-dependent self-assembly and gelation was established, glucose-dependent gelation was explored through the inclusion of GOx to actuate glucose into a pH stimulus. One benefit of hydrogelation of this material at 1% w/v is the significant hydrated and interconnected porosity (FIG. 9A-D) to enable encapsulation of proteins like GOx to drive gelation in response to glucose. Samples of C10-V2A2E2 were prepared at 1% w/v in buffer at pH 7.4, with glucose added to achieve concentrations ranging from 0 to 200 mg/dL (0 to 11.1 mM). These ranges of glucose were selected to span typical physiological glucose levels in the healthy state and extend down to levels corresponding to hypoglycemia. Following equilibration for 24 h, samples were assessed grossly for gelation by vial inversion (FIG. 10A), as performed in pH-dependent gelation studies. […] The material prepared with 100 mg/dL glucose was very viscous but slowly flowed upon inversion, while those prepared at 0 mg/dL and 50 mg/dL were not self-supported on inversion.
Measurements were collected as before for gels prepared in each of the different glucose-containing buffers. The value of G′ increased with increasing levels of glucose, as follows: 10.2 Pa (0 mg/dL), 19.0 Pa (50 mg/dL), 29.5 Pa (100 mg/dL), 206.6 Pa (150 mg/dL), and 2.4 kPa (200 mg/dL). Given results of pH-dependent gelation for C10-V2A2E2 PA, it was expected that inclusion of GOx would actuate increased glucose level into a local reduction in pH driving hydrogelation. […] The fixed and finite glucose concentrations within these small volume hydrogels may somewhat limit direct comparisons with concentrations for their use in a physiological setting, as a replenishable glucose supply could further stiffen the materials through enhanced pH reduction.

[5] = test system: Streptozotocin (STZ) diabetic mice; test: Prophylactic hypoglycemia prevention after insulin overdose in diabetic mice
Description: To assess the ability of this technology to act in a preventative role to limit the onset and severity of hypoglycemia, a mouse model was established. Male C57BL6/J mice, aged 8 weeks, were induced to be diabetic by the destruction of pancreatic β-cells using a single intraperitoneal (i.p.) injection of streptozotocin (STZ, Cayman Chemical) at a dose of 150 mg/kg, according to published dosing protocols. […] Insulin-deficient diabetes was verified at 9-13 days following STZ treatment using handheld blood glucose meters (CVS brand) to ensure unfasted blood glucose (BG) levels of 600+ mg/dL. These glucometers measure blood glucose values in the range of 20-600 mg/dL. For convention in presenting data, values of “high” are plotted as 600 mg/dL, while values of “low” are plotted as 20 mg/dL.
Mice were fasted overnight for a period of 9 h, after which time BG was again measured. Mice having a fasted BG<450 mg/dL were triaged and removed from further study. Remaining mice were dosed with basal insulin detemir (Levemir®, Novo Nordisk) via subcutaneous (s.c.) injection at a dose of 0.5 IU/kg in a total injection volume of 100 μL. […] This material formulation was verified to be stable following extrusion through a syringe into a pH 7 buffer containing 100 mg/dL glucose. Blood glucose was monitored serially following treatment, which for purposes of data visualization was set as t=0 min. At 2 h following administration of treatments, hypoglycemia was induced by i.p. injection of AOF recombinant human insulin (Gibco) at a dose of ˜2.5 IU/kg in 100 μL of saline. BG levels were monitored for an additional 3 h after insulin overdose to monitor the onset of, and recovery from, hypoglycemia. […] In total n=9 mice per group were assessed by these methods, performing all treatments in two separate experiments on different mouse cohorts at different times and combining the data for analysis here. Mice were fasted for the duration of the study but had continuous access to water. […] Statistical testing between treatment and control groups was performed using one-way ANOVA with Tukey multiple comparison post-hoc testing (GraphPad Prism v9.0).
STZ mice were fasted to increase sensitivity to both insulin and glucagon and limit confounding data arising from variable eating patterns. After a 9 h fast, basal insulin detemir (Novo Nordisk, Levemir®) was administered to correct blood glucose to within the normoglycemic range for a healthy mouse (˜180-200 mg/dL) to simulate insulin-dependent blood glucose control in diabetes.

[6] = in vivo; cited from earlier work
[7] = humans; cited from earlier work

CCCCCCCCCC(=O)N[C@H](C(=O)N[C@H](C(=O)N[C@@H](C)C(=O)N[C@@H](C)C(=O)N[C@@H](CCC(=O)O)C(=O)N[C@@H](CCC(=O)O)C(N)=O)C(C)C)C(C)C [C10—V2A2E2] (Decanoyl-VVAAEE-NH2)
pH within hydrogel sample ([1]; 0 mg/dL glucose): 7.3
pH within hydrogel sample ([1]; 200 mg/dL glucose): 5.5
Δ Release % (pH 7-5 at 5 hr) [2]: 62.6%
critical strain ([3]; hydrogel in buffer at pH 5): ~55%
strain range of linear behavior with G′>G″ ([3]; hydrogel in buffer at pH 5): 0.1-5%
pKa ([3]; inferred from rheology, TEM, CD, FTIR, ThT, read-out: pKa of glutamic acid residues in the assembled structures): 5 to 6
storage modulus G′ ([3]; pH 4): 6.2 kPa
storage modulus G′ ([3]; pH 5): 5.1 kPa
storage modulus G′ ([3]; pH 6): 53.7 Pa
storage modulus G′ ([3]; pH 7): 4.3 Pa
storage modulus G′ ([3]; pH 8): 1.2 Pa
storage modulus G′ ([4]; 0 mg/dL glucose): 10.2 Pa
storage modulus G′ ([4]; 50 mg/dL glucose): 19.0 Pa
storage modulus G′ ([4]; 100 mg/dL glucose): 29.5 Pa
storage modulus G′ ([4]; 150 mg/dL glucose): 206.6 Pa
storage modulus G′ ([4]; 200 mg/dL glucose): 2.4 kPa

CCCCCCCCCC(=O)N[C@H](C(=O)N[C@@H](C)C(=O)N[C@@H](C)C(=O)N[C@@H](C)C(=O)N[C@@H](CCC(=O)O)C(=O)N[C@@H](CCC(=O)O)C(N)=O)C(C)C [C10—VA3E2] (Decanoyl-VAAAEE-NH2)
Δ Release % (pH 7-5 at 5 hr) [2]: 39.1%

CCCCCCCCCCCCCCCC(=O)N[C@@H](C)C(=O)N[C@@H](C)C(=O)N[C@H](C(=O)N[C@H](C(=O)N[C@@H](CCC(=O)O)C(=O)N[C@@H](CCC(=O)O)C(N)=O)C(C)C)C(C)C [C16—A2V2E2] (Palmitoyl-AAVVEE-NH2)
Δ Release % (pH 7-5 at 5 hr) [2]: 38.9%

CCCCCCCCCCCCCCCC(=O)N[C@H](C(=O)N[C@H](C(=O)N[C@@H](C)C(=O)N[C@@H](C)C(=O)N[C@@H](CCC(=O)O)C(=O)N[C@@H](CCC(=O)O)C(N)=O)C(C)C)C(C)C [C16—V2A2E2] (Palmitoyl-VVAAEE-NH2)
Δ Release % (pH 7-5 at 5 hr) [2]: 43.6%

CCCCCCCCCCCCCCCC(=O)N[C@H](C(=O)N[C@@H](C)C(=O)N[C@@H](C)C(=O)N[C@@H](C)C(=O)N[C@@H](CCC(=O)O)C(=O)N[C@@H](CCC(=O)O)C(N)=O)C(C)C [C16—VA3E2] (Palmitoyl-VAAAEE-NH2)
Δ Release % (pH 7-5 at 5 hr) [2]: 53.8%

dasiglucagon
blood glucose relative to buffer control ([5]; 30 min after treatment, before insulin challenge): sharply increased
blood glucose at endpoint of study ([5]; 300 min, 3 h after insulin challenge, n=9): 65.6 ± 10.8 mg/dL
minimum (nadir) blood glucose ([5]; STZ mice, s.c. 0.01 mg dasiglucagon, insulin challenge at 2 h, n=9, SEM): 41.1 ± 5.0 mg/dL
observations of death ([5]; after insulin overdose): 1 of 9

glucagon
half-life in circulation [6]: approximately 5 min

insulin detemir
duration of action [7]: 18 to 20 h
